Source: patent US20060128695A1, “Cyclic nucleotide phosphodiesterase inhibitors, preparation and uses” (NEURO3D, priority 2002, published 2006)

Assays:
Assay type in all cases: biochemical, bovine
[1] = molecular target: T1, PDE2 (Bos taurus, UniProt P14099); experiment: Inhibition of PDE2, radioenzymatic phosphodiesterase assay
T1 construct: PDE2 was prepared from bovine endothelial cells by the same methods; endogenous in cells; host or cells: bovine endothelial cells
T1 sequence (P14099 1-921): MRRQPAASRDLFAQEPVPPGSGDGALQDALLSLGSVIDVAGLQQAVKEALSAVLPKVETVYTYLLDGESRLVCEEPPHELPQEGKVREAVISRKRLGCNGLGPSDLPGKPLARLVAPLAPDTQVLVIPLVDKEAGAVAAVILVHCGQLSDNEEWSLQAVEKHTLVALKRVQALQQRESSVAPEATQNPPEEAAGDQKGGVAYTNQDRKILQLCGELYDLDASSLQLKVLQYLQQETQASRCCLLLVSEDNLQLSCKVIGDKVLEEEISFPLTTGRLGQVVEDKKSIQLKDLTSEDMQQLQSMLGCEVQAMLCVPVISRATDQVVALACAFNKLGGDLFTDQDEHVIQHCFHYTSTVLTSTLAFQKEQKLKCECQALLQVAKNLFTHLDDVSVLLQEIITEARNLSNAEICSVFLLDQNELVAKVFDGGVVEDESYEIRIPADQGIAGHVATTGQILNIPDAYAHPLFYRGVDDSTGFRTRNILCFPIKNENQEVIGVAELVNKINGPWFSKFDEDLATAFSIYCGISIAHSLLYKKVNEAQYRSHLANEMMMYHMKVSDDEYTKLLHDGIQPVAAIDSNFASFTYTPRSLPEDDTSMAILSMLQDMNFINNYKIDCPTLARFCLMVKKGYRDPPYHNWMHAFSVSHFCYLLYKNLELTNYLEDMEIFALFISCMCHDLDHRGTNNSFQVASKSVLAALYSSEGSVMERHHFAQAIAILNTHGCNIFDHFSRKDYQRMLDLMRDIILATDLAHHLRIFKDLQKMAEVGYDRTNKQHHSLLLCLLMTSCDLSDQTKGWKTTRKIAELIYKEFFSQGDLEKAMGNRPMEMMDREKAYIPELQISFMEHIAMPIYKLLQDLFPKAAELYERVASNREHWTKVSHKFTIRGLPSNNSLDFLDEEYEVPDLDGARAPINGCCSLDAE

[2] = system: PDE4; experiment: Selectivity: inhibition of PDE4, radioenzymatic phosphodiesterase assay; details: 10 μM test compound; vascular smooth muscle
Method: (§1) A 3 g segment of bovine aortic media cut into pieces with scissors was homogenized with an ultra-turrax then a potter glass/glass homogenizer in 7 volumes by weight of buffer A containing a protease inhibitor cocktail (20 mM Tris-HCl, 0.25 M saccharose, 2 mM magnesium acetate, 1 mM dithiothreitol, 5 mM EGTA, 2000 U/ml aprotinin, 10 mg/l leupeptin and 10 mg/l soya trypsic inhibitor). The homogenizate was centrifuged at 105,000 g for 1 hour. The supernatant was loaded on a DEAE-Sephacel column (15 x 1.6 cm) pre-equilibrated with buffer B (buffer A without the saccharose, EGTA and protease inhibitors). The column was washed until there was no detectable absorption at 280 nm, then eluted with a linear gradient of NaCl (0-0.5 M) in buffer B. 3-ml fractions were collected and enzyme activity was determined under the conditions described hereinbelow to localize the different enzymes PDE1, PDE3, PDE4 and PDE5 which were aliquoted and frozen at −80° C. (Lugnier et al., Biochem. Phamacol., 1986, 35: 1746-1751). PDE2 was prepared from bovine endothelial cells by the same methods (Lugnier and Schini, Biochem. Pharmacol., 1990, 39: 75-84).
(§2) Cyclic nucleotide phosphodiesterase activity was determined by a radioenzymatic method using tritium-labelled cyclic GMP or AMP (1 μM) as substrate (Lugnier et al., 1986). ^3H-labelled adenosine or guanosine monophosphate formed by hydrolysis of the radiolabelled cyclic nucleotide was then converted to ^3H-labelled adenosine or guanosine in a second reaction with […] in excess. The nucleoside formed was separated from the nucleotides by anion exchange chromatography. Nucleoside radioactivity was determined by liquid scintillation counting. Enzymatic incubations were carried out under conditions allowing no more than 15% hydrolysis of the substrate; each point was performed in duplicate.
(§3) The activity of the compounds was evaluated on other phosphodiesterase isoforms, particularly basal state or calmodulin-activated PDEl from vascular smooth muscle, PDE3, PDE4 and PDE5 from vascular smooth muscle.
(§4) The results obtained are presented in Tables 1 and 2 hereinbelow and are expressed as the percentage inhibition of enzymatic activity produced by […] of the test compound.

[3] = system: PDE1; experiment: Selectivity: inhibition of PDE1, radioenzymatic phosphodiesterase assay; details: 10 μM test compound; vascular smooth muscle
Method: as §1
as §2, with “Enzymatic incubations were carried out under conditions allowing no more than 15% hydrolysis of the substrate; each point was performed in duplicate.” left out
as §3, §4

[4] = molecular target: T2, PDE5 (Bos taurus, UniProt Q28156); experiment: Selectivity: inhibition of PDE5, radioenzymatic phosphodiesterase assay; details: 10 μM test compound; vascular smooth muscle; read-out: PDE5 percentage inhibition at 10 μM
T2 construct: localize the different enzymes PDE1, PDE3, PDE4 and PDE5 which were aliquoted and frozen; from tissue; host or cells: bovine aortic media (vascular smooth muscle)
Method: as §1, §2, §3, §4

[5] = molecular target: T3, PDE3 (Bos taurus, UniProt A0A3Q1M1E8); experiment: Selectivity: inhibition of PDE3, radioenzymatic phosphodiesterase assay; details: 10 μM test compound; vascular smooth muscle; read-out: PDE3 percentage inhibition at 10 μM
T3 sequence (A0A3Q1M1E8 1-1126): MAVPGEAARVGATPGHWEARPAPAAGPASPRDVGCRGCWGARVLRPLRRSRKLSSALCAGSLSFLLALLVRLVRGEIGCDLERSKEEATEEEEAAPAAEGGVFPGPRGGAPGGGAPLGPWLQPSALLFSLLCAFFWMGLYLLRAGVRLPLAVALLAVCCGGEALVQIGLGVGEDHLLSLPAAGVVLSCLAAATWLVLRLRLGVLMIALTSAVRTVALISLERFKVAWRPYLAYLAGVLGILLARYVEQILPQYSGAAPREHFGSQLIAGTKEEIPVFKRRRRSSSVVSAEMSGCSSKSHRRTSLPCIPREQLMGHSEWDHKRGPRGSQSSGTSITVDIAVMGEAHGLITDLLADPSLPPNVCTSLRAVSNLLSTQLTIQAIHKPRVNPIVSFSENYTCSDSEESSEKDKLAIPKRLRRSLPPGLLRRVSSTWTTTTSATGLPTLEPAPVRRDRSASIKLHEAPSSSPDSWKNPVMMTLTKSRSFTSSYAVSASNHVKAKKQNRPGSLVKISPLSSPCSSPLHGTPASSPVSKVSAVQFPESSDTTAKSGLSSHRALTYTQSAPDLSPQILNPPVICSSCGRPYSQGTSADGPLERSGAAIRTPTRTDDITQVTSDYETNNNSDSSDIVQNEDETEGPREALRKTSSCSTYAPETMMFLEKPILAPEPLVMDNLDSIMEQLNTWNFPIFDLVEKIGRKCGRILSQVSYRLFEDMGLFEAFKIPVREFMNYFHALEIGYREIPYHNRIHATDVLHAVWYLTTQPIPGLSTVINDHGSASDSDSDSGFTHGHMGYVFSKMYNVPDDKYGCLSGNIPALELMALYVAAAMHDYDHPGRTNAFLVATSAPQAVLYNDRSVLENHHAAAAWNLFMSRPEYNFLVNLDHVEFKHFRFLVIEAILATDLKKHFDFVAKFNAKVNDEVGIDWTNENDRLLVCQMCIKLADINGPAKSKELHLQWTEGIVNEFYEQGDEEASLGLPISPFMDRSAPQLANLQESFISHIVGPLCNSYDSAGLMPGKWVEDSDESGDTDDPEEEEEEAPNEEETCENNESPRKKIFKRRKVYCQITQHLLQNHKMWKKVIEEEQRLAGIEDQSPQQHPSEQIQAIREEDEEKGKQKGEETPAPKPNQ
Method: as §1
as §2, with “Enzymatic incubations were carried out under conditions allowing no more than 15% hydrolysis of the substrate; each point was performed in duplicate.” left out
as §3, §4

| SMILES | IC50 [1] [nM] | PDE4 percentage inhibition at 10 μM [2] [%] | PDE1 percentage inhibition at 10 μM [3] [%] | inhibition at 10 µM [4] [%] | inhibition at 10 µM [5] [%] |
| --- | --- | --- | --- | --- | --- |
| COc1cc2c(cc1OC)N(C)C(=O)CN=C2c1cccnc1 [Compound 17b, 7,8-dimethoxy-1-methyl-5-(3-pyridyl)-1,3-dihydro-1,4-benzodiazepin-2-one] | 1500 | 8 | 10 | 14 | 36 |
| COc1cc2c(cc1OC)N(C)C(=O)CN=C2c1cccc(C(F)(F)F)c1 [Compound 4p, 7,8-dimethoxy-1-methyl-[5-(3-trifluoromethyl)phenyl]-1,3-dihydro-2H-1,4-benzodiazepin-2-one] | 1800 | 19 | 25 | 26 | 58 |
